In ChEMBL document CHEMBL1201861, “Genomics of Drug Sensitity in Cancer screening data, Wellcome Trust Sanger Institute”:
pIC50: −log10 of the molar value.

Tested on: EW-24;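 note: human EW-24 cancer cell line, growth inhibition read out via a cell viability assay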
Assay: cells
Assay type: functional, cell-based, Homo sapiens
Settings: Homo sapiens, EW-24
Description: SANGER: Inhibition of human EW-24 cell growth in a cell viability assay.

| SMILES | pIC50 |
| --- | --- |
| COc1cc(-c2nn([C@H]3CC[C@H](N4CCN(C(C)=O)CC4)CC3)c3ncnc(N)c23)ccc1NC(=O)c1cc2ccccc2n1C | < 5.29 |

Tested on: NCI-H747;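 note: growth inhibition of human NCI-H747 cells, read out by a cell viability assay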
Assay: cells
Assay type: functional, cell-based, Homo sapiens
Settings: Homo sapiens, NCI-H747
Description: SANGER: Inhibition of human NCI-H747 cell growth in a cell viability assay.

| SMILES | pIC50 |
| --- | --- |
| COc1cc(-c2nn([C@H]3CC[C@H](N4CCN(C(C)=O)CC4)CC3)c3ncnc(N)c23)ccc1NC(=O)c1cc2ccccc2n1C | 5.54 |

Tested on: TE-11;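 note: growth inhibition of human TE-11 cells, read out by a cell viability assay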
Assay: cells
Assay type: functional, cell-based, Homo sapiens
Settings: Homo sapiens, TE-11
Description: SANGER: Inhibition of human TE-11 cell growth in a cell viability assay.

| SMILES | pIC50 |
| --- | --- |
| COc1cc(-c2nn([C@H]3CC[C@H](N4CCN(C(C)=O)CC4)CC3)c3ncnc(N)c23)ccc1NC(=O)c1cc2ccccc2n1C | 5.80 |

Tested on: A101D;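 note: growth inhibition of the cell line, measured with a viability assay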
Assay: cells
Assay type: functional, cell-based, Homo sapiens
Settings: Homo sapiens, A101D
Description: SANGER: Inhibition of human A101D cell growth in a cell viability assay.

| SMILES | pIC50 |
| --- | --- |
| COc1cc(-c2nn([C@H]3CC[C@H](N4CCN(C(C)=O)CC4)CC3)c3ncnc(N)c23)ccc1NC(=O)c1cc2ccccc2n1C | 5.43 |

Tested on: TE-5;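 note: inhibition of cell growth, read out by a cell viability assay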
Assay: cells
Assay type: functional, cell-based, Homo sapiens
Settings: Homo sapiens, TE-5
Description: SANGER: Inhibition of human TE-5 cell growth in a cell viability assay.

| SMILES | pIC50 |
| --- | --- |
| COc1cc(-c2nn([C@H]3CC[C@H](N4CCN(C(C)=O)CC4)CC3)c3ncnc(N)c23)ccc1NC(=O)c1cc2ccccc2n1C | < 5.29 |

Tested on: GR-ST
Assay: cells
Assay type: functional, cell-based, Homo sapiens
Settings: Homo sapiens, GR-ST
Description: SANGER: Inhibition of human GR-ST cell growth in a cell viability assay.

| SMILES | pIC50 |
| --- | --- |
| COc1cc(-c2nn([C@H]3CC[C@H](N4CCN(C(C)=O)CC4)CC3)c3ncnc(N)c23)ccc1NC(=O)c1cc2ccccc2n1C | < 5.29 |

Tested on: J-RT3-T3-5;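 note: cell viability assay measuring growth inhibition of human J-RT3-T3-5 cells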
Assay: cells
Assay type: functional, cell-based, Homo sapiens
Settings: Homo sapiens, J-RT3-T3-5
Description: SANGER: Inhibition of human J-RT3-T3-5 cell growth in a cell viability assay.

| SMILES | pIC50 |
| --- | --- |
| COc1cc(-c2nn([C@H]3CC[C@H](N4CCN(C(C)=O)CC4)CC3)c3ncnc(N)c23)ccc1NC(=O)c1cc2ccccc2n1C | < 5.29 |

Tested on: MPP-89;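 note: growth inhibition of human MPP-89 cells, read out with a cell viability assay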
Assay: cells
Assay type: functional, cell-based, Homo sapiens
Settings: Homo sapiens, MPP-89
Description: SANGER: Inhibition of human MPP-89 cell growth in a cell viability assay.

| SMILES | pIC50 |
| --- | --- |
| COc1cc(-c2nn([C@H]3CC[C@H](N4CCN(C(C)=O)CC4)CC3)c3ncnc(N)c23)ccc1NC(=O)c1cc2ccccc2n1C | < 5.29 |

Tested on: A704;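 note: growth inhibition of human A704 cells, read out with a cell viability assay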
Assay: cells
Assay type: functional, cell-based, Homo sapiens
Settings: Homo sapiens, A704
Description: SANGER: Inhibition of human A704 cell growth in a cell viability assay.

| SMILES | pIC50 |
| --- | --- |
| COc1cc(-c2nn([C@H]3CC[C@H](N4CCN(C(C)=O)CC4)CC3)c3ncnc(N)c23)ccc1NC(=O)c1cc2ccccc2n1C | 5.94 |

Tested on: SF-268;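 note: growth inhibition of SF-268 cells determined with a cell viability assay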
Assay: cells
Assay type: functional, cell-based, Homo sapiens
Settings: Homo sapiens, SF-268
Description: SANGER: Inhibition of human SF268 cell growth in a cell viability assay.

| SMILES | pIC50 |
| --- | --- |
| COc1cc(-c2nn([C@H]3CC[C@H](N4CCN(C(C)=O)CC4)CC3)c3ncnc(N)c23)ccc1NC(=O)c1cc2ccccc2n1C | 5.40 |

Tested on: SK-N-FI;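 note: cell viability assay measuring growth inhibition of human SK-N-FI cells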
Assay: cells
Assay type: functional, cell-based, Homo sapiens
Settings: Homo sapiens, SK-N-FI
Description: SANGER: Inhibition of human SK-N-FI cell growth in a cell viability assay.

| SMILES | pIC50 |
| --- | --- |
| COc1cc(-c2nn([C@H]3CC[C@H](N4CCN(C(C)=O)CC4)CC3)c3ncnc(N)c23)ccc1NC(=O)c1cc2ccccc2n1C | < 5.29 |

Tested on: NCI-H720;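 note: growth inhibition of human NCI-H720 cells determined by a cell viability assay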
Assay: cells
Assay type: functional, cell-based, Homo sapiens
Settings: Homo sapiens, NCI-H720
Description: SANGER: Inhibition of human NCI-H720 cell growth in a cell viability assay.

| SMILES | pIC50 |
| --- | --- |
| COc1cc(-c2nn([C@H]3CC[C@H](N4CCN(C(C)=O)CC4)CC3)c3ncnc(N)c23)ccc1NC(=O)c1cc2ccccc2n1C | < 5.29 |

Tested on: NCI-H1395;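 note: cell viability assay read-out quantifying reduced proliferation of human NCI-H1395 cells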
Assay: cells
Assay type: functional, cell-based, Homo sapiens
Settings: Homo sapiens, NCI-H1395
Description: SANGER: Inhibition of human NCI-H1395 cell growth in a cell viability assay.

| SMILES | pIC50 |
| --- | --- |
| COc1cc(-c2nn([C@H]3CC[C@H](N4CCN(C(C)=O)CC4)CC3)c3ncnc(N)c23)ccc1NC(=O)c1cc2ccccc2n1C | < 5.29 |

Tested on: BB30-HNC;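 note: growth inhibition of the cultured cell line, read out by a cell viability assay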
Assay: cells
Assay type: functional, cell-based, Homo sapiens
Settings: Homo sapiens, BB30-HNC
Description: SANGER: Inhibition of human BB30-HNC cell growth in a cell viability assay.

| SMILES | pIC50 |
| --- | --- |
| COc1cc(-c2nn([C@H]3CC[C@H](N4CCN(C(C)=O)CC4)CC3)c3ncnc(N)c23)ccc1NC(=O)c1cc2ccccc2n1C | 6.06 |

Tested on: GOTO;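 note: growth inhibition of GOTO cells, read out by a cell viability assay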
Assay: cells
Assay type: functional, cell-based, Homo sapiens
Settings: Homo sapiens, GOTO
Description: SANGER: Inhibition of human GOTO cell growth in a cell viability assay.

| SMILES | pIC50 |
| --- | --- |
| COc1cc(-c2nn([C@H]3CC[C@H](N4CCN(C(C)=O)CC4)CC3)c3ncnc(N)c23)ccc1NC(=O)c1cc2ccccc2n1C | < 5.29 |

Tested on: 8-MG-BA;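 note: growth inhibition of 8-MG-BA cells, read out with a cell viability assay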
Assay: cells
Assay type: functional, cell-based, Homo sapiens
Settings: Homo sapiens, 8-MG-BA
Description: SANGER: Inhibition of human 8-MG-BA cell growth in a cell viability assay.

| SMILES | pIC50 |
| --- | --- |
| COc1cc(-c2nn([C@H]3CC[C@H](N4CCN(C(C)=O)CC4)CC3)c3ncnc(N)c23)ccc1NC(=O)c1cc2ccccc2n1C | 5.34 |

Tested on: SK-MEL-1;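 note: growth inhibition of human SK-MEL-1 cells, read out by a cell viability assay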
Assay: cells
Assay type: functional, cell-based, Homo sapiens
Settings: Homo sapiens, SK-MEL-1
Description: SANGER: Inhibition of human SK-MEL-1 cell growth in a cell viability assay.

| SMILES | pIC50 |
| --- | --- |
| COc1cc(-c2nn([C@H]3CC[C@H](N4CCN(C(C)=O)CC4)CC3)c3ncnc(N)c23)ccc1NC(=O)c1cc2ccccc2n1C | < 5.29 |

Tested on: IST-MEL1;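 note: growth inhibition of the cell line, read out with a cell viability assay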
Assay: cells
Assay type: functional, cell-based, Homo sapiens
Settings: Homo sapiens, IST-MEL1
Description: SANGER: Inhibition of human IST-MEL1 cell growth in a cell viability assay.

| SMILES | pIC50 |
| --- | --- |
| COc1cc(-c2nn([C@H]3CC[C@H](N4CCN(C(C)=O)CC4)CC3)c3ncnc(N)c23)ccc1NC(=O)c1cc2ccccc2n1C | 6.08 |

Tested on: ES6;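 note: growth inhibition of human ES6 cells, read out with a cell viability assay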
Assay: cells
Assay type: functional, cell-based, Homo sapiens
Settings: Homo sapiens, ES6
Description: SANGER: Inhibition of human ES6 cell growth in a cell viability assay.

| SMILES | pIC50 |
| --- | --- |
| COc1cc(-c2nn([C@H]3CC[C@H](N4CCN(C(C)=O)CC4)CC3)c3ncnc(N)c23)ccc1NC(=O)c1cc2ccccc2n1C | 5.71 |

Tested on: NCI-H82;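 note: growth inhibition of NCI-H82 cells, measured with a cell viability readout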
Assay: cells
Assay type: functional, cell-based, Homo sapiens
Settings: Homo sapiens, NCI-H82
Description: SANGER: Inhibition of human NCI-H82 cell growth in a cell viability assay.

| SMILES | pIC50 |
| --- | --- |
| COc1cc(-c2nn([C@H]3CC[C@H](N4CCN(C(C)=O)CC4)CC3)c3ncnc(N)c23)ccc1NC(=O)c1cc2ccccc2n1C | < 5.29 |

Tested on: GCIY;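 note: growth inhibition of the human GCIY cell line, read out by a cell viability assay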
Assay: cells
Assay type: functional, cell-based, Homo sapiens
Settings: Homo sapiens, GCIY
Description: SANGER: Inhibition of human GCIY cell growth in a cell viability assay.

| SMILES | pIC50 |
| --- | --- |
| COc1cc(-c2nn([C@H]3CC[C@H](N4CCN(C(C)=O)CC4)CC3)c3ncnc(N)c23)ccc1NC(=O)c1cc2ccccc2n1C | 5.39 |

Tested on: NB6;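 note: growth inhibition of NB6 cells, read out by a cell viability assay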
Assay: cells
Assay type: functional, cell-based, Homo sapiens
Settings: Homo sapiens, NB6
Description: SANGER: Inhibition of human NB6 cell growth in a cell viability assay.

| SMILES | pIC50 |
| --- | --- |
| COc1cc(-c2nn([C@H]3CC[C@H](N4CCN(C(C)=O)CC4)CC3)c3ncnc(N)c23)ccc1NC(=O)c1cc2ccccc2n1C | < 5.29 |

Tested on: L-363
Assay: cells
Assay type: functional, cell-based, Homo sapiens
Settings: Homo sapiens, L-363
Description: SANGER: Inhibition of human L-363 cell growth in a cell viability assay.

| SMILES | pIC50 |
| --- | --- |
| COc1cc(-c2nn([C@H]3CC[C@H](N4CCN(C(C)=O)CC4)CC3)c3ncnc(N)c23)ccc1NC(=O)c1cc2ccccc2n1C | < 5.29 |

Tested on: ES4;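 note: growth inhibition of human ES4 cells, read out by a cell viability assay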
Assay: cells
Assay type: functional, cell-based, Homo sapiens
Settings: Homo sapiens, ES4
Description: SANGER: Inhibition of human ES4 cell growth in a cell viability assay.

| SMILES | pIC50 |
| --- | --- |
| COc1cc(-c2nn([C@H]3CC[C@H](N4CCN(C(C)=O)CC4)CC3)c3ncnc(N)c23)ccc1NC(=O)c1cc2ccccc2n1C | < 5.29 |
